Assay results from patent US20250019386A1, “PYRROLO[1,2-b]-2-PYRIDAZINONE COMPOUNDS AS 5-HT4 RECEPTOR AGONISTS” (SUVEN LIFE SCIENCES LIMITED, priority 2022, published 2025).

What was measured:
[1] = Rat pharmacokinetic study; format: in vivo; settings: male Wistar rats, plasma; for bioavailability: oral 3 mg/kg vs intravenous 1 mg/kg
Method: Male Wistar rats (250±50 g) were used as experimental animals. Animals were housed individually in polypropylene cages. Two days prior to study, rats were anesthetized with isoflurane for surgical placement of jugular vein catheter. Rats were randomly divided for oral (3 mg/kg and 10 mL/kg as dose volume) and intravenous (1 mg/kg and 2 mL/kg as dose volume) dosing (n=3/group) and fasted overnight before oral dosing (p.o.). However, rats allocated to intravenous dosing food and water was provided ad libitum.
Intravenous formulation was prepared by using water for injection as vehicle. For Oral, formulation was prepared by using reagent grade water as vehicle. The dose formulations were prepared freshly on the day of dosing.
After dosing of animal, each time point a 200 μL of blood sample was collected through jugular vein and replenished with an equivalent volume of normal saline. The collected blood sample was transferred into a labeled eppendorf tube containing 10 μL of sodium heparin (1000 IU/mL) as an anticoagulant. Typically blood samples were collected at following time points: 0.08, 0.25, 0.5, 1, 2, 4, 6, 8, and 24 h post dose. Blood was centrifuged at 4000 rpm for 10 min. Plasma was separated and stored frozen at −80° C. until analysis. The concentrations of the test compounds were quantified in plasma by qualified LC-MS/MS method using a suitable extraction technique. The test compounds were quantified in the calibration range around 1-2000 ng/mL in plasma. Study samples were analyzed using calibration samples in the batch and quality control samples spread across the batch.
Pharmacokinetic parameters Cmax, AUCt, t1/2 and bioavailability were calculated by non-compartmental model using standard non-compartmental model by using Phoenix WinNonlin 6.4 version Software.

[2] = Rat brain penetration study; format: in vivo; settings: brain/plasma, oral (gavage) 3 mg/kg, male Wistar rats, brain concentrations below LLOQ taken as zero, read-out: Single dose Brain Penetration (Cb/Cp)
Method: Male Wistar rats (225±25 g) were used as experimental animals. Three animals were housed in each cage. Animals were given water and food ad libitum throughout the experiment and maintained on a 12 h light/dark cycle.
Brain penetration was determined in discrete manner in rats. One day prior to dosing day, male Wistar rats were acclimatized. After acclimatization, the rats were grouped according to their weight. In each group, 3 animals were kept in individual cages and allowed free access to food and water. At each time point (0.5, 1, and 2 h) n=3 animals were used.
The compounds of formula (I) were suitably preformulated and administered orally at (free base equivalent) 3 mg/kg. Blood samples were collected via, cardiac puncture by using isoflurane anesthesia. The animals were sacrificed to collect brain tissue. Plasma was separated and brain samples were homogenized and stored frozen at −20° C. until analysis.
The concentrations of the compounds of formula (I) were quantified in plasma and brain homogenate by qualified LC-MS/MS method using a suitable extraction technique. The compounds of formula (I) were quantified in the calibration range of 1-2000 ng/mL in plasma and brain homogenate. Study samples were analyzed using calibration samples in the batch and quality control samples spread across the batch. Extent of brain-plasma ratio was calculated (Cb/Cp). Brain concentrations were found below LLOQ and a value of zero was considered for calculation purposes.

5-HT4 receptors [3] = target: T1, 5-HT4 receptors (Homo sapiens (Human), UniProt Q13639); test: Determination of EC50 values for 5-HT4 receptor (pCRE-Luc reporter assay); format: cell-based; settings: CHO cells expressing recombinant human 5-HT4 receptor and pCRE-Luc reporter; 4 h incubation; luciferase activity
T1 sequence (Q13639 whole entry): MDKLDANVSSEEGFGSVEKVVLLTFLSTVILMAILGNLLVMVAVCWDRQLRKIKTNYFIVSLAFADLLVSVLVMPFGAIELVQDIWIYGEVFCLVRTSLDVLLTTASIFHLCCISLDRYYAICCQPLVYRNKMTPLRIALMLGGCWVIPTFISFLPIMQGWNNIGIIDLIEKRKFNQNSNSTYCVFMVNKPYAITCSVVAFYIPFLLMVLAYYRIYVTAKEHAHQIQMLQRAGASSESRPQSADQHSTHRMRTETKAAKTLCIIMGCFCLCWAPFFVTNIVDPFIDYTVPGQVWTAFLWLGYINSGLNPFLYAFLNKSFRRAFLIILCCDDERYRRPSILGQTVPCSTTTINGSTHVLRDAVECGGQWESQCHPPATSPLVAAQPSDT
Method: A stable CHO cell line expressing recombinant human 5-HT4 receptor and pCRE-Luc reporter system was used for cell-based assay. The assay offers a non-radioactive based approach to determine binding of a compound to GPCRs. In this specific assay, the level of intracellular cyclic AMP, which is modulated by activation, or inhibition of the receptor is measured. The recombinant cells harbor luciferase reporter gene under the control of cAMP response element.
The above cells were grown in 96 well clear bottom white plates in Ham's F12 medium containing 10% fetal bovine serum. Prior to the addition of compounds or standard agonist, cells were serum starved overnight. Increasing concentrations of test compounds were added to the cells in OptiMEM medium. The incubation was continued in CO2 incubator at 37° C. with 5% CO2 conditions for 4 h. Medium was removed and cells were washed with phosphate buffered saline. The cells were lysed and luciferase activity was measured in a Luminometer. Concentration-response data was generated using the luciferase assay, following incubation of cells with receptor ligands, were analyzed by subtracting basal levels (i.e. with medium alone), then normalizing values as a percentage of controls (endogenous agonist serotonin (10 μM)). […] EC50 values of the compounds were defined as the concentration required in stimulating the luciferase activity by 50%.

hERG potassium channels = hERG potassium channels (Homo sapiens (Human), UniProt Q12809); settings: background statement; cited from earlier work
Sequence of hERG potassium channels (Q12809 whole entry): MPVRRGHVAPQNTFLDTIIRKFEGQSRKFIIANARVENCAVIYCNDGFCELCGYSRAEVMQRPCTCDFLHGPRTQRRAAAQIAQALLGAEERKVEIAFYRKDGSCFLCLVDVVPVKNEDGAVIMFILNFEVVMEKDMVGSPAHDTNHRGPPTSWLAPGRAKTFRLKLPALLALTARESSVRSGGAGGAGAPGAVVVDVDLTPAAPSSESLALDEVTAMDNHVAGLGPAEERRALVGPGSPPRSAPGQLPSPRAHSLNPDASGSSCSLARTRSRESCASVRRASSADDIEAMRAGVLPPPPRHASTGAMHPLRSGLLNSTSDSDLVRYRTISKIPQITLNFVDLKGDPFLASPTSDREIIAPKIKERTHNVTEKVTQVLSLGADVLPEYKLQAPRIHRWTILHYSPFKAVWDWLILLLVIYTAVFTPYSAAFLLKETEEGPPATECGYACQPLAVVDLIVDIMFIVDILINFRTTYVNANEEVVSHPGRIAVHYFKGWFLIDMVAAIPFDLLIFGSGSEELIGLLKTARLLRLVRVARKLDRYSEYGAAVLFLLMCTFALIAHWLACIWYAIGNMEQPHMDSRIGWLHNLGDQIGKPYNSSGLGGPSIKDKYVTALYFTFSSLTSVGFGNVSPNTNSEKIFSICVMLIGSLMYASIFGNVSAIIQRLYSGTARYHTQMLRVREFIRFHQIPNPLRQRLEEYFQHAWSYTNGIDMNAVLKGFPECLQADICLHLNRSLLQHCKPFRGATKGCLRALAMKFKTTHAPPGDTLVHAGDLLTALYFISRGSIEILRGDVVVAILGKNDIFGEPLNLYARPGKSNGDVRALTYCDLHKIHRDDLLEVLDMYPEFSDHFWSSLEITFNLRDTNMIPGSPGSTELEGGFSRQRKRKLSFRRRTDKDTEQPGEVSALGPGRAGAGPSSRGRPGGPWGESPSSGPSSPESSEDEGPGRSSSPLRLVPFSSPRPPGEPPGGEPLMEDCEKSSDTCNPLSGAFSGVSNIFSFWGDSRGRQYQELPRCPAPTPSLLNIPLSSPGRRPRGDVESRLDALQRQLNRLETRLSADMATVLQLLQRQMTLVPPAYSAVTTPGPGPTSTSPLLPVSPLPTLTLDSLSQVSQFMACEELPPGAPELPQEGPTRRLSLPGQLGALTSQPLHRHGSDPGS

5-HT4 receptors [4] = target: T1, 5-HT4 receptors; settings: background statement; cited from earlier work
gastric emptying = test: Effect on gastric emptying in Beagle dogs (clonidine model of gastroparesis); format: in vivo; settings: 10 mg/kg oral, clonidine-treated beagle dogs
Method: Six beagle dogs were used for the study in a crossover manner such that all 6 dogs received all the treatments. Each dog was placed in an individual cage after overnight fasting and water removed. To provide a model of gastroparesis, clonidine (α2 adrenergic agonist) at a dose of 10 μg/kg was injected subcutaneously 30 min before test meal administration.
Dogs were orally administered test compound of example 2 at 1, 3 and 10 mg/kg or vehicle or cisapride at 10 mg/kg immediately before the administration of clonidine. The test meal (10 mL/kg), made up of commercially available semi-solid food with 10 mg/kg of acetaminophen (APAP), was provided 30 min after clonidine injection. Blood samples were collected from cephalic vein at 0, 0.25, 0.5, 0.75, 1.0, 1.25, 1.5 & 2.0 h after test meal administration and then plasma was separated by centrifugation. Plasma concentrations of APAP were determined by in-house methods using LC-MS/MS.

SMILES	AUC(0-t) ([1]; intravenous (bolus), 1 mg/kg) [ng·h/mL]	half-life ([1]; intravenous (bolus), 1 mg/kg) [h]	AUC(0-t) ([1]; oral (gavage), 3 mg/kg) [ng·h/mL]	Cmax ([1]; oral (gavage), 3 mg/kg) [ng/mL]	bioavailability [1] [%]	Kp [2]	EC50 (5-HT4 receptors [3]) [µM]	interaction with hERG potassium channels (hERG potassium channels)	selectivity for 5-HT4 receptors (5-HT4 receptors [4])	speed of gastric emptying (gastric emptying)
COC(=O)NCCCN1C2CCC1CC(NC(=O)c1cc3cccn3n(C(C)C)c1=O)C2.O=C(O)C(O)C(O)C(=O)O [Example 34, N-{8-[3-Carbomethoxyaminopropyl]-8-azabicyclo[3.2.1]oct-3-yl} [1-isopropyl-2-oxo-1,2-dihydro pyrrolo[1,2-b]pyridazin]-3-carboxamide L-(+)-tartrate]	119 ± 16	1.3 ± 0.3	274 ± 74	174 ± 49	77 ± 21	0	0.018			
COc1cc(N)c(Cl)cc1C(=O)NC1CCN(CCCOc2ccc(F)cc2)CC1OC (centres unmarked) [cisapride]								potent interaction	poor selectivity	restored speed of gastric emptying
[H]/N=C(/NCCCCC)N/N=C/c1c[nH]c2ccc(OC)cc12 [tegaserod]								potent interaction	poor selectivity	
CC(C)n1c(=O)c(C(=O)NC2CC3CCC(C2)N3CCNS(C)(=O)=O)cc2cccn21.O=C(O)C(O)C(O)C(=O)O [Example 28, N-{8-[2-Methanesulfonylaminoethyl]-8-azabicyclo[3.2.1]oct-3-yl} [1-isopropyl-2-oxo-1,2-dihydro pyrrolo[1,2-b]pyridazin]-3-carboxamide L-(+)-tartrate]	146 ± 39	1.3 ± 0.2	189 ± 26	83 ± 51	43 ± 6	0	0.012			
CC(C)n1c(=O)c(C(=O)NC2CC3CCC(C2)N3C[C@H](O)CN(C)S(C)(=O)=O)cc2cccn21.O=C(O)C(O)C(O)C(=O)O (single isomer, unassigned) [Example 4]	124 ± 7.9	1.7 ± 0.3	44 ± 22	11 ± 6.6	12 ± 5.9	0	0.01			
